Patent publication US20120142730A1 (priority 2010, published 2012)
Where two headings read alike, the source gives them in different places.

What was measured:
[1] = tested on: subjects with relapsing remitting multiple sclerosis (RRMS); test: ALLEGRO (MS-LAQ-301) phase III trial: confirmed relapse endpoints; type: in vivo, human; parameters: key to Annualized relapse rate, adjusted mean (SE): ARR = number of relapses divided by total patient exposure; settings: for Annualized relapse rate, adjusted mean (SE): 24-month treatment period
Text: The primary endpoint of the study was the number of confirmed relapses during the double-blind treatment period, which corresponds to the annualized relapse rate (ARR—number of relapses divided by total exposure of all patients). Secondary endpoints included disability as measured by Expanded Disability Status Scale (EDSS) changes confirmed at 3 months, and cumulative number of gadolinium enhancing (GdE) and new/enlarging T2 MRI lesions. Eligible subjects were equally randomized 1:1 into one of the following treatment arms: • 1. […] 21, 2007 (see, page 10, line 5 to page 11, line 3). • 2. Matching placebo for laquinimod arm: one capsule is administered once daily. The primary endpoint was the number of confirmed relapses during the double-blind study period. A relapse was defined as the appearance of one or more new neurological abnormalities or the reappearance of one or more previously observed neurological abnormalities lasting for at least 48 hours and after an improved neurological state for at least 30 days. An event was counted as a relapse if the subject's symptoms were accompanied by observed objective neurological changes consistent with at least one of the following: an increase of at least 0.5 in the EDSS score; an increase of one grade in two or more of the seven functional systems; or an increase of two grades in one functional system. Standardized treatment of relapses was intravenous methylprednisolone 1 g/day for up to five consecutive days based on the treating neurologist's decision. The analysis of the total number of confirmed relapses during the study period is based on baseline adjusted Quasi-Likelihood (over-dispersed) Poisson Regression. Using the Poisson regression with the treatment group as a covariate, the ARR of each group was calculated for the intent-to-treat (ITT) cohort as the total number of confirmed relapses for all patients in each group divided by the total patient years in that group. In addition to the treatment group, the following covariates were included: baseline EDSS score, log of the (prior 2-year number of relapses +1) and country or geographical region.

[2] = tested on: subjects with relapsing remitting multiple sclerosis (RRMS); test: ALLEGRO phase III trial: safety and tolerability; type: in vivo, human
Description: Eligible subjects were equally randomized 1:1 into one of the following treatment arms: • 1. […] 21, 2007 (see, page 10, line 5 to page 11, line 3). • 2. Matching placebo for laquinimod arm: one capsule is administered once daily.
The following assessments were performed at specified time points: • 1. Vital signs were measured at each study visit. • 2. A physical examination is performed at months −1 (screening), (baseline) 1, 3, 6, 12, 18 and 24 (termination/early discontinuation core study). In case of the 6 months extended study, additional examination was performed at month 30 (termination/early discontinuation of extended study). • 3. The following safety clinical laboratory tests were performed: • a. Complete blood count (CBC) with differential—at all scheduled visits. A reticulocyte count was added to the CBC at months 0 (baseline) and 24/30 (termination/early discontinuation). • b. Serum chemistry (including electrolytes, liver enzymes, direct and total bilirubin and pancreatic amylase and CPK), and urinalysis—at all scheduled visits. • c. A rapid urine β-hCG test was performed in women of child-bearing potential at baseline (month 0) and at each scheduled study visit thereafter (at site). • d. β-hCG in women of child-bearing potential was performed at all scheduled visits. • e. Starting after visit Month 3 a rapid urine β-hCG test was performed in women of child-bearing potential every 28 (±2) days. […] Adverse Events (AEs) are monitored throughout the study. • 9. Concomitant medications are monitored throughout the study. • 10. […] MS functional Composite (MSFC) was assessed at months −1 (screening) (three practices for training purposes only), at month 0 (baseline), 6, 12, 18 and 24 (termination/early discontinuation). […] Subject-reported fatigue was assessed by the Modified Fatigue Impact Scale (MFIS) at months 0, 6, 12, 18, and 24 (termination/early discontinuation). […] The general health status was assessed by the EuroQoL (EQ5D) questionnaire at month 0 (baseline) and month 24 (termination/early discontinuation of the study). […]

relapsing MS = settings: cited from earlier work; for Development of active MRI lesions in relapsing MS: Polman, 2005
[3] = 0.6 mg daily oral vs placebo, 24 months
[4] = post-hoc, vs placebo, listed as laquinimod

With `CCN(C(=O)c1c(O)c2c(Cl)cccc2n(C)c1=O)c1ccccc1` [Laquinimod, laquinimod] the “Annualized rate of relapses requiring hospitalization and/or IV steroids, reduction” value ([1]; 0.6 mg daily oral vs placebo) was 27% reduction, the “Increase in the time to first relapse” value ([1]; 0.6 mg daily oral vs placebo) was 28.2% and the “Time to 1st confirmed relapse: reduction for the risk of 1st confirmed relapse” value ([1]; 0.6 mg daily oral vs placebo) was 28% reduction for the. For the same compound, the “Annualized relapse rate, reduction” value [1, 3] was 23% reduction, the “Increase in odds to be relapse free” value [1, 3] was 55% increase odds to and the “Increase in odds to be relapse free” value ([1]; 0.6 mg daily oral vs placebo, 24 months, listed as laquinimod) was 55%. For the same compound, the “Annualized relapse rate, adjusted mean (SE)” value ([1]; 0.6 mg daily oral) was 0.304, the “Annualized relapse rate, adjusted mean (SE)” value ([1]; 0.6 mg daily oral, listed as laquinimod) was 0.304±0.022 and the “Annualized rate of relapses requiring hospitalization and/or IV steroids, adjusted mean” value ([1]; 0.6 mg daily oral, 24 months) was 0.242. The “Relapse-free during study, adjusted proportion” value ([1]; 0.6 mg daily oral, 24 months) was 62.90%, the “Relapse-free during study, adjusted proportion” value ([1]; 0.6 mg daily oral, 24 months, listed as laquinimod) was 62.9% and the “ARR 1st year” value ([1]; post-hoc, 0.6 mg daily oral) was 0.343. The ARR for dropouts ([1]; post-hoc, 0.6 mg daily oral) was 0.640, the “Annualized rate of relapses requiring IV steroids” value ([1]; post-hoc, 0.6 mg daily oral) was 0.263 and the “Annualized rate of relapses requiring hospitalization” value ([1]; post-hoc, 0.6 mg daily oral) was 0.071. The “Relapses with full recovery (EDSS before and after attack)” value ([1]; post-hoc, 0.6 mg daily oral) was 0.155, the “Relapses with no recovery (EDSS before and after attack)” value ([1]; post-hoc, 0.6 mg daily oral) was 0.06 and the Unconfirmed relapses ([1]; post-hoc, 0.6 mg daily oral) was 0.094. For the same compound, the “ARR by median relapse duration” value ([1]; post-hoc, relapse duration >34 days (n~100)) was 0.964, the “ARR by median relapse duration, reduction” value ([1]; post-hoc, relapse duration >34 days (n~100), vs placebo) was 1.3% reduction and the “ARR by median relapse duration” value ([1]; post-hoc, relapse duration ≦34 days) was 0.153. The “ARR by median relapse duration, reduction” value ([1]; post-hoc, relapse duration ≦34 days, vs placebo) was 37% reduction, the “ARR 1st year, reduction” value ([1]; post-hoc, vs placebo) was 24% reduction and the “ARR for dropouts, reduction” value ([1]; post-hoc, vs placebo) was 26% reduction. For the same compound, the “Relapses requiring IV steroids, reduction” value ([1]; post-hoc, vs placebo) was 27% reduction, the “Relapses requiring hospitalization, reduction” value ([1]; post-hoc, vs placebo) was 38% reduction and the “Relapses with full recovery, reduction” value ([1]; post-hoc, vs placebo) was 13% reduction. The “Relapses with no recovery, reduction” value ([1]; post-hoc, vs placebo) was 24% reduction, the “Unconfirmed relapses, reduction” value ([1]; post-hoc, vs placebo) was 17% reduction and the “Relapses requiring IV steroids, reduction” value [1, 4] was 27%. The “Relapses requiring hospitalization, reduction” value [1, 4] was 38%, the Deaths ([2]; 0.6 mg daily oral, 24 months) was “No deaths” and the “Time of occurrence of ALT elevations up to 5×ULN” value ([2]; human, in vivo) was ≤ 6 months. For the same compound, the “Reversibility of ALT elevations up to 5×ULN” value ([2]; in vivo) was “all were reversible”, the “MRI and clinical effect as compared to placebo” value (relapsing MS; 0.3 mg/day oral dose, Comi, 2007) was “neither MRI nor clinical effect” and the “Development of active MRI lesions in relapsing MS” value (relapsing MS; 0.3 mg/day oral dose) was “reduce development of active MRI lesions”. For the same compound, the “Development of active MRI lesions in relapsing MS” value (relapsing MS) was “reduce development of active MRI lesions”.
